Reference: DBAASP
In brackets after ≈: the same amount, converted by molar mass. Each block holds one compound with its values, some of them ahead of it.

Assays:
Test in all cases: ≥ marks a high value that may be exact or a test limit, other limits are often not marked, values filed in µg/mL are converted to µM
[1] = tested on: Klebsiella pneumoniae ATCC BAA-1705
[2] = tested on: Escherichia coli W3110
[3] = tested on: Streptococcus mutans UA159
[4] = tested on: Enterococcus faecalis
[5] = tested on: Streptococcus sanguinis NY101
[6] = tested on: Staphylococcus aureus
[7] = tested on: Pseudomonas aeruginosa PAK
[8] = tested on: Escherichia coli AS1.349
[9] = tested on: Pseudomonas aeruginosa CGMCC 1.860
[10] = tested on: Klebsiella aerogenes CGMCC 1.876
[11] = tested on: Staphylococcus aureus AS1.72
[12] = tested on: Lactococcus lactis AS1.1690
[13] = tested on: Bacillus cereus AS1.126
[14] = tested on: Enterococcus faecalis CGMCC 1.595
[15] = tested on: Enterococcus faecium CGMCC 1.2334
[16] = tested on: Enterobacter cloacae CGMCC 1.58
[17] = tested on: Klebsiella pneumoniae subsp. pneumoniae CGMCC 1.176

MIC [1]: 8 µM (≈ 18.6 µg/mL)
MIC [2]: 1 µM (≈ 2.32 µg/mL)
SMILES: CC[C@H](C)[C@H](N)C(=O)N[C@@H](Cc1c[nH]c2ccccc12)C(=O)N[C@@H](Cc1c[nH]c2ccccc12)C(=O)N[C@@H](C)C(=O)N[C@@H](CCCCN)C(=O)N[C@@H](Cc1c[nH]c2ccccc12)C(=O)NCC(=O)N[C@@H](CC(C)C)C(=O)N[C@@H](CCCCN)C(=O)N[C@@H](CC(C)C)C(=O)N[C@@H](CC(C)C)C(=O)N[C@@H](CCCN=C(N)N)C(=O)N[C@@H](Cc1ccc(O)cc1)C(=O)N[C@@H](CCCN=C(N)N)C(=O)N[C@@H](CCCN=C(N)N)C(=O)N[C@H](C(=O)N[C@@H](Cc1ccc(O)cc1)C(=O)O)[C@@H](C)CC [IWWAKWGLKLLRYRRIY]

SMILES: CC(C)C[C@H](NC(=O)CNC(=O)[C@H](CC(C)C)NC(=O)[C@H](CCCCN)NC(=O)[C@H](C)NC(=O)[C@H](Cc1c[nH]c2ccccc12)NC(=O)[C@H](Cc1c[nH]c2ccccc12)NC(=O)[C@@H](N)Cc1c[nH]c2ccccc12)C(=O)N[C@@H](CCCCN)C(=O)N[C@@H](CC(C)C)C(=O)N[C@@H](CC(C)C)C(=O)N[C@@H](CCCN=C(N)N)C(=O)N[C@@H](Cc1ccc(O)cc1)C(=O)N[C@@H](CCCN=C(N)N)C(=O)N[C@@H](CCCN=C(N)N)C(=O)N[C@@H](Cc1c[nH]c2ccccc12)C(=O)N[C@@H](Cc1ccc(O)cc1)C(=O)O [WWWAKLGLKLLRYRRWY]
MIC [1]: 8 µM (≈ 19.2 µg/mL)
MIC [2]: 4 µM (≈ 9.58 µg/mL)

MIC [3]: 8.13 µM (≈ 7.99 µg/mL)
MIC [4]: 16.3 µM (≈ 16 µg/mL)
MIC [5]: 16.3 µM (≈ 16 µg/mL)
MIC [2]: 8.13 µM (≈ 7.99 µg/mL)
MIC [6]: 32.5 µM (≈ 32 µg/mL)
MIC [7]: 16.3 µM (≈ 16 µg/mL)
SMILES: CC(C)C[C@H](NC(=O)[C@H](Cc1cnc[nH]1)NC(=O)[C@H](Cc1ccccc1)NC(=O)[C@H](Cc1cnc[nH]1)NC(=O)[C@@H](N)Cc1ccccc1)C(=O)N[C@@H](Cc1cnc[nH]1)C(=O)N[C@@H](Cc1ccccc1)C(N)=O [FHFHLHF]

MIC [8]: 3.12 µM (≈ 4.44 µg/mL)
MIC [9]: 3.12 µM (≈ 4.44 µg/mL)
MIC [10]: 6.25 µM (≈ 8.9 µg/mL)
MIC [11]: 3.12 µM (≈ 4.44 µg/mL)
MIC [12]: 3.12 µM (≈ 4.44 µg/mL)
MIC [13]: 3.12 µM (≈ 4.44 µg/mL)
MIC [14]: 6.25 µM (≈ 8.9 µg/mL)
MIC [15]: 6.25 µM (≈ 8.9 µg/mL)
MIC [16]: 6.25 µM (≈ 8.9 µg/mL)
MIC [17]: 6.25 µM (≈ 8.9 µg/mL)
SMILES: CC[C@H](C)[C@H](N)C(=O)N[C@@H](CCCCN)C(=O)N[C@@H](CCCCN)C(=O)N[C@H](C(=O)N[C@@H](CC(C)C)C(=O)N[C@@H](CO)C(=O)N[C@@H](CCCCN)C(=O)N[C@H](C(=O)N[C@@H](CCCCN)C(=O)N[C@@H](CCCCN)C(=O)N[C@@H](CC(C)C)C(=O)N[C@@H](CC(C)C)C(N)=O)[C@@H](C)CC)[C@@H](C)CC [IKKILSKIKKLL]
